Source: patent publication US20200239398A1, “METHYLENE-CYCLOALKYLACETATE DERIVATIVES AND THEIR USE IN TREATMENT OF NEUROTROPIC CONDITIONS” (Yissum Research Development Company of The Hebrew …, priority 2018, published 2020)
Where two headings read alike, the source gives them in different places.

Experiments:
[1] = target: Dopamine Receptor D1 (DRD1) (Homo sapiens, UniProt P21728); assay: SAFETYscan DRD1 cAMP; assay type: cell-based; details: 10 μM HU-MCA-13
[2] = target: Opioid Receptor Kappa 1 (OPRK1) (Homo sapiens, UniProt P41145); assay: SAFETYscan OPRK1 cAMP; assay type: cell-based; details: 10 μM HU-MCA-13, read-out: Maximal Response
Sequence of Opioid Receptor Kappa 1 (OPRK1) (P41145 whole entry): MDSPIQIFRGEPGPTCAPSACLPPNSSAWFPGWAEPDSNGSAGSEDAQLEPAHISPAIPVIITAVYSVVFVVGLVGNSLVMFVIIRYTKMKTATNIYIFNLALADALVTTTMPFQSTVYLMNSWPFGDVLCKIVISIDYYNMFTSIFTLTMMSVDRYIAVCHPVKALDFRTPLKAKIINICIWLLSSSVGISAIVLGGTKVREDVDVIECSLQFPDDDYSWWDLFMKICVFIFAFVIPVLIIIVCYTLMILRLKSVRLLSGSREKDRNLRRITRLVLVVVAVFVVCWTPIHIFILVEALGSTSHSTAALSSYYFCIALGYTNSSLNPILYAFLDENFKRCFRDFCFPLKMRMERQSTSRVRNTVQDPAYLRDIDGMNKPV

[3] = target: Endothelin Receptor Type A (EDNRA) (Homo sapiens, UniProt P25101); assay: SAFETYscan EDNRA Calcium Flux; assay type: cell-based; details: Agonist mode; 10 μM HU-MCA-13; read-out: Maximal Response
Sequence of Endothelin Receptor Type A (EDNRA) (P25101 21-427): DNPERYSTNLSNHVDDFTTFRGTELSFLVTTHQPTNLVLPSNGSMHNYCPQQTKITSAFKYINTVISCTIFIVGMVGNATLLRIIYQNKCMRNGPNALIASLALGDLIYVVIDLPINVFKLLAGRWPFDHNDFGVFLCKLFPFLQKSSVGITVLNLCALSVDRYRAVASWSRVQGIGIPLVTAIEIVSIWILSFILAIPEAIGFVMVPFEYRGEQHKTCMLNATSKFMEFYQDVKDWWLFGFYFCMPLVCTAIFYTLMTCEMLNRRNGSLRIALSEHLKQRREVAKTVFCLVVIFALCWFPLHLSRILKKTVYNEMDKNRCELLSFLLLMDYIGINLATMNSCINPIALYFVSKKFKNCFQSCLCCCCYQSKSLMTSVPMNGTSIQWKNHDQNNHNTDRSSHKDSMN

[4] = system: PC12 cells; assay: Additive neurotropic effect between HU-MCA-13 and NGF, PC12 neurite outgrowth; assay type: cell-based, rat
Method: PC12 cells were cultured in T-200 flasks in high glucose (4.5 gr/L) DMEM medium supplemented with 7% FCS, 7% horse serum and 1% penicillin and streptomycin. Cells will be maintained at 37° C. in a humidified incubator containing 6% CO2. All experiments were carried out in a GLP clean room, according to ISO 7 requirements (10,000 particles/m^3). For neurotropic experiments, tissue culture Falcon plates were coated with 200 μg/ml collagen type 1 and placed under UV light for 30 minutes for sterilization. Thereafter, one ml of PC12 cell suspension (5000 cells/well) was applied in 12 or 24 well plate, respectively. The cultures were maintained in the incubator two days before exposure to investigated compound. Each neurotropic experiment contained two controls. The first consisted of untreated cells (negative control), representing the random effect: “noise signal”—the ability of cells to spontaneously grow neurite outgrowth which in seven days are of a length less than two-fold cell diameter. Also, negative controls consisted of cultures treated with 1% DMSO, solvent used to solubilize HU-MCA-13. The positive controls represented neuronal cultures treated with 50 ng/ml NGF, indicating maximal neurite outgrowth that can be achieved in this model. The experimental group consisted of PC12 cells treated with 10 μM HU-MCA-13. In each experiment, after two and seven days, six cultures will be evaluated for neurotropic effect. These consecutive observations allow measurement of the progress of neurite outgrowth elongation and the percentage of cells with neurites (Katzir et al. A quantitative bioassay for nerve growth factor, using PC12 clones expressing different levels of trkA receptors. J Mol Neurosci. 2002; 18(3):251-64). In order to assess neurotropic effect, the neurite outgrowth length in each culture was quantified. For this purpose, each culture was placed under an inverted microscope and photographed by the attached camera. Each well was photographed at three to five representative areas. After acquiring the photos, they were analyzed by ImageJ, NIH software. The neurite outgrowth was estimated by fractal dimension (Df), a statistical parameter that describes the fractional space (area and length) filled by neurite outgrowth. Df ranged from 0 to 1.20. This method estimated the amount of picsels covered by neurites/cells compared to empty space per square field, and therefore plotting log(number of square boxes) vs. log(size in pixels) relationship generated a linear curve with Df representing the slope of the curve. Every photograph that was taken, was opened in a Photoshop software and a new layer was generated on it. Using a 5-pixel wide digital pencil tool, all the outgrowths were marked and the layer with the markers (outgrowth network) were saved in a 0-255 gray scale. Thereafter, the saved layer was opened by ImageJ NIH software.
Using an established PC12 neurotropic in vitro assay, the regenerative enhancing effect of HU-MCA-13 when applied concomitantly, together with NGF, a known neurotrophin was investigated. […] NGF alone, as positive control, at the conventional dose of 50 ng/ml enhanced neurite outgrowth to a Df value of 0.54 at 2 days and 0.4 at 7 days of treatment (FIG. 5). To verify a possible additive effect, the cultures with a mixture of low dose NGF (1 ng/ml generating 10% neurite outgrowth=Df of 0.05) and 1 μM HU-MCA-13 generating about 10-15% neurite outgrowth=Df of 0.04) were tested and found after 2 days a Df of 0.85 and after 7 days a Df of 0.38. NGF is released by hematopoietic cells during polyneuropathy inflammatory process, this finding further strength the possibility of a potential enhancement regenerative effect of this drug upon in vivo therapy.

[5] = target: T1, Cyclooxygenase 2 (COX 2) (Homo sapiens, UniProt P35354); assay: SAFETYscan COX 2 Enzymatic; assay type: biochemical; details: Inhibitor mode; 10 μM HU-MCA-13; read-out: Maximal Response
T1 construct: DiscoverX (SAFETYscan contract panel)
T1 sequence (P35354 18-604): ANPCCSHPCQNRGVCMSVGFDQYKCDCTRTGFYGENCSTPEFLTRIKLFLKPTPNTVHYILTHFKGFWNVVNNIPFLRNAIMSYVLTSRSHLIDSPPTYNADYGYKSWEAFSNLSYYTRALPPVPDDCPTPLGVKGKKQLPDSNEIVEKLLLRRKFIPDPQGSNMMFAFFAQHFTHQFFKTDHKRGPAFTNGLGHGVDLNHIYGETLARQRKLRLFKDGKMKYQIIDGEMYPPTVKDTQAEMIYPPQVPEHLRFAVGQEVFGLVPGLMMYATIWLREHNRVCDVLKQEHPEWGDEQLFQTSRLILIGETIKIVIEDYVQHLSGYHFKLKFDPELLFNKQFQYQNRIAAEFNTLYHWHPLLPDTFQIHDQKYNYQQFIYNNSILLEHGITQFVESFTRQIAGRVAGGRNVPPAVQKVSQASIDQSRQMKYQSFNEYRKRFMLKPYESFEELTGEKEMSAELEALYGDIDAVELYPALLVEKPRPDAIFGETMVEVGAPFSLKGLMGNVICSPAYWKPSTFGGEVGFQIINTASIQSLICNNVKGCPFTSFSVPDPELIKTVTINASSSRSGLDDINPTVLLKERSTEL

[6] = system: spinal cord motor neurons; assay: Neurite outgrowth in adult rat spinal cord primary cultures; assay type: cell-based; details: 10 μM HU-MCA-13 for 7 days
Method: To study the effect of HU-MCA-13 on adult rat spinal cord primary cultures in vitro, a purification procedure was developed that yields highly enriched motor neurons cultures. Spinal cord motor neuron cultures are an important tool for the study of mechanisms involved in motor neuron survival, degeneration and regeneration, motor neuron disorders such as amyotrophic lateral sclerosis or spinal muscular atrophy as well as in spinal cord injury. This bioassay was performed using vehicle (1% DMSO) DMEM negative control and 10 μM HU-MCA-13, tested compound. Briefly, dissected pieces of adult rat spinal cord tissue were maintained in phosphate-buffered saline (PBS) without Ca^2+ and Mg^2+ and pooled together and transferred to an enzymatic dissociation media containing 20 IU/ml papain in Earle's balanced salt solution (Worthington Biochemical, Freehold, N.J.) and incubated for 30 min at 37° C. After enzymatic dissociation, the papain solution was aspirated and the tissue was mechanically triturated with a fire-polished Pasteur pipette in complete media [Neurobasal Medium with B-27 supplement (Gibco, Grand Island, N.Y.), 100 IU/ml penicillin, […], 3.3 μg/ml aphidicolin, 0.5 mM glutamate] containing 2000 IU/ml DNase and 10-mg/ml protease inhibitors. Single-cell suspensions in complete media was plated on pre-coated collagen IV/laminin mixture-coated 96-well plates (Becton-Dickinson, Bedford, Mass.) at a density of 1.0×10^4 cells/well. The spinal cord motor neurons (red arrows) and accessory Schwann cells (orange) were maintained for one day in culture and then exposed to 1% DMSO-DMEM negative control or 10 μM HU-MCA-13 for 7 days. The cultures were photographed, and Image analysis was performed. Neurite outgrowth was measured and quantified as for PC12 cultures, focusing on two parameters: a. SUM-total area covered by neurite outgrowths; b. mean length of a neurite (microns).

Sequence of Dopamine Receptor D1 (DRD1) (P21728 whole entry): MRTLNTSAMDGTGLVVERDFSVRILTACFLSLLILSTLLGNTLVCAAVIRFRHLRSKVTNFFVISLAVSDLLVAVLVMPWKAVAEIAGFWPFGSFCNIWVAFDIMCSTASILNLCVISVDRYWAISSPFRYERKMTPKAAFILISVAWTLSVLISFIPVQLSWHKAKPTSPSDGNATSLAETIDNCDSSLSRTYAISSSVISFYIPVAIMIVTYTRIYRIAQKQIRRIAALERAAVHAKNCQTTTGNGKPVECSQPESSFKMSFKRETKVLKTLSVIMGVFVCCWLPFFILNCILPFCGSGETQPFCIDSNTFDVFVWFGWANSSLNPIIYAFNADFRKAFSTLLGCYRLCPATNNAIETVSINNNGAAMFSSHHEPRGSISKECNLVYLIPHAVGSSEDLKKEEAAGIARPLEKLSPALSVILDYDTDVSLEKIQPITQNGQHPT

C=CCC1CCC[C@@H](CCC(=O)O)C1=C (stereo partly shown) [Compound 13]
Emax ([1]; read-out: Maximal Response, Agonist mode): 0% | Emax ([1]; read-out: Maximal Response, Antagonist mode): 14.3% | Emax ([2]; Agonist mode): 7.89% | Emax ([2]; Antagonist mode): 0% | Emax [3]: 0% | neurite outgrowth ([4]; 1 μM HU-MCA-13): 10-15% | neurite outgrowth Df ([4]; 1 μM HU-MCA-13): 0.04 | neurite outgrowth Df ([4]; HU-MCA-13 alone at 10 μM, 2 days): 0.36 | neurite outgrowth Df ([4]; HU-MCA-13 alone at 10 μM, 7 days): 0.30 | Emax [5]: 7.99% | mean length of the neurite [6]: 350 micrometer | neurotropic effect versus control medium [6]: four folds neurotropic effect | total (SUM) neurite length [6]: 600 micrometer
